Measured values taken from patent US11345691B2, “Prodrug modulators of the cystic fibrosis transmembrane conductance regulator protein and methods of use” (AbbVie Global Enterprises Ltd., priority 2019, dated 2022).

Assay: Phase 1 first-in-human single ascending dose pharmacokinetic study (Pharmacokinetic Study 1)
Format: in vivo
Details: after single oral 250 mg or 500 mg dose of Example 4—Prodrug; healthy adult subjects
Procedure: Evaluate the PK profile of Example 4, which is a prodrug of (5-{3-amino-5-[4-(trifluoromethoxy)benzene-1-sulfonyl]pyridin-2-yl}-1,3,4-oxadiazol-2-yl)methanol, in healthy human adult subjects.
Two open label Phase 1, first in human studies in adult healthy subjects were conducted to evaluate the safety, tolerability, and pharmacokinetics of single oral doses of Example 1 administered as an oral suspension and prodrug Example 4 capsule, respectively. Subjects were screened and enrolled based on pre-specified criteria for inclusion and exclusion. The safety in subjects was determined by clinical evaluation and by monitoring of laboratory parameters. Blood samples were longitudinally collected at pre-specified time points following the administration of Example 1 or Example 4—Prodrug to measure the plasma concentrations of study drug and determine the pharmacokinetics of Example 1 and Example 4—Prodrug.
For this study the inclusion criteria includes the following: • 1. […]
Plasma concentrations of Example 1 and Example 4—Prodrug were determined using validated methods. The values for the pharmacokinetic parameters of Example 1 or Example 4—Prodrug were determined using noncompartmental methods with WinNonlin Phoenix 8.1.

SMILES: CC(C)[C@H](N)C(=O)OCc1nnc(-c2ncc(S(=O)(=O)c3ccc(OC(F)(F)F)cc3)cc2N)o1 [Example 4, (5-{3-amino-5-[4-(trifluoromethoxy)benzene-1-sulfonyl]pyridin-2-yl}-1,3,4-oxadiazol-2-yl)methyl (2S)-2-amino-3-methylbutanoate]
- Plasma concentrations of intact Example 4—Prodrug: no quantifiable plasma concentrations
